Side chains are listed from the residue outwards. Peptide text beside a SMILES is read from it. * marks the point of attachment. Biotin = O=C1N[C@H]2[C@H](CS[C@H]2CCCCC(=O)*)N1; X1 = N=C(N)NCCCC(N*)P(=O)(Oc1ccccc1)Oc1ccccc1; Palmitoyl = CCCCCCCCCCCCCCCC(=O)*; Ahx = NCCCCCC(=O)O
Legend:
cathepsin B = cathepsin B (Homo sapiens, UniProt P07858); experiment: Cathepsin B activity assay; assay type: biochemical; details: up to and including a concentration of 10 μM, N = 3
Method: Fig 3 Comparison of QUB-F1 and furin I versus cathepsin B. Cathepsin B activity was assessed in the presence or absence of various concentrations of QUB-F1 or furin I (N = 3). Data represent mean ± s.e.m.

recombinant human furin = target: T1, recombinant human furin (Homo sapiens, UniProt P09958); experiment: Second order rate constant determination, steady-state fluorimetric assay (pERTKR-NH2Mec); assay type: biochemical; details: irreversible inhibitor kinetics, 50 μM pERTKR-NH2Mec, 37°C, pH 7.4
T1 construct: purchased R&D Systems
Method: A range of final inhibitor concentrations (at least 5) were prepared from a 10 mM stock solution of QUB-F1 (in N,N-dimethyformamide (DMF)). The fluorogenic substrate, p-Glu-Arg-Thr-Lys-Arg-NH2Mec (pERTKR-AMC), was diluted in assay buffer (25 mM Tris/HCl containing 1 mM CaCl2, pH 7.4) and used at a fixed concentration of 50 μM throughout. All inhibition assays were performed in microtitre plates maintained at 37°C in a final volume of 100 μl. The reaction was initiated by the addition of recombinant human furin (0.01 μg/well) and the rate of substrate hydrolysis continuously recorded at λex 360 nm, λem 480 nm, over a period of 90 minutes using a FLUOstar Optima microplate reader (BMG Labtech). The resultant inhibition progress curve for QUB-F1 was then analysed according to the kinetic models developed by Tian and Tsou and Walker and Elmore, for irreversible inhibitors, using GRAFIT (Erithacus Software). The inhibitor constant Ki, the apparent first order rate constant k3, and over all second-order rate constant (k3/Ki) for QUB-F1 against furin was determined, from a plot of 1/A against [I] (where A is the apparent second-order rate constant for irreversible inhibition determined for each inhibitor concentration [I]). The determination of Km and Vmax were also determined separately by fitting initial rates of hydrolysis to substrate concentration, according to Michaelis-Menten kinetics, also using GRAFIT (Erithacus Software). The inhibitor constant Ki, the apparent first order rate constant k3, and the overall second-order rate constant (k3/Ki) for QUB-F1 against furin were determined, from a plot of 1/A against [I] (where A is the apparent second-order rate constant for irreversible inhibition determined for each inhibitor concentration [I]).
The ability of QUB-F1 to inhibit recombinant human furin was assessed using a steady-state fluorimetric assay employing the cognate fluorescent substrate (pERTKR-NH2Mec). The k3, Ki and k3/Ki values where determined as follows: Ki 9.33 (± 0.32) x 10^−7 M, k3 0.016 (± 0.004) min^-1 and k3/Ki […] M^-1 min^-1. […]

CuFi-1 epithelial cells = experiment: PEA-induced epithelial cell toxicity (LDH cytotoxicity assay); assay type: cell-based, human; details: 2 μg/ml PEA, 24 h, CF airway epithelial cells
Method: The CuFi-1 cell line was derived from human airway epithelium of a CF patient (F508del/F508del) transformed with a reverse transcriptase component of telomerase, hTERT and human papillomavirus type 16 E6 and E7 genes. Cells were grown as submerged cultures using bronchial epithelial growth medium (BEBM including a supplement pack) containing: epidermal growth factor, hydrocortisone, bovine pituitary extract, transferrin, bovine insulin, triiodothyronine, epinephrine, retinoic acid, penicillin-streptomycin (0.025 μg/ml), gentamycin ([…]) and amphotericin (25 μg/ml).
Cytotoxicity was determined using the LDH-Cytotoxicity Colorimetric Assay Kit II (Bio Vision) in accordance with the instructions provided by the manufacturer. Addition of the supplied cell lysis solution to control wells was used to determine 100% cytotoxicity in each set of experiments.
Fig 4 Effect of furin inhibitors on PEA-induced epithelial cell toxicity. (A) Cell toxicity (%) induced by 2 μg/ml PEA (24 h) was measured in the presence or absence of furin I or QUB-F1. Data represent mean ± s.e.m. *P<0.05. (B) Airway epithelial cell surface furin-like activity was assayed upon application of the furin fluorogenic substrate (pERTKR) to cell cultures in the presence or absence of 10 μM furin I or QUB-F1.

T1 sequence (P09958 108-794): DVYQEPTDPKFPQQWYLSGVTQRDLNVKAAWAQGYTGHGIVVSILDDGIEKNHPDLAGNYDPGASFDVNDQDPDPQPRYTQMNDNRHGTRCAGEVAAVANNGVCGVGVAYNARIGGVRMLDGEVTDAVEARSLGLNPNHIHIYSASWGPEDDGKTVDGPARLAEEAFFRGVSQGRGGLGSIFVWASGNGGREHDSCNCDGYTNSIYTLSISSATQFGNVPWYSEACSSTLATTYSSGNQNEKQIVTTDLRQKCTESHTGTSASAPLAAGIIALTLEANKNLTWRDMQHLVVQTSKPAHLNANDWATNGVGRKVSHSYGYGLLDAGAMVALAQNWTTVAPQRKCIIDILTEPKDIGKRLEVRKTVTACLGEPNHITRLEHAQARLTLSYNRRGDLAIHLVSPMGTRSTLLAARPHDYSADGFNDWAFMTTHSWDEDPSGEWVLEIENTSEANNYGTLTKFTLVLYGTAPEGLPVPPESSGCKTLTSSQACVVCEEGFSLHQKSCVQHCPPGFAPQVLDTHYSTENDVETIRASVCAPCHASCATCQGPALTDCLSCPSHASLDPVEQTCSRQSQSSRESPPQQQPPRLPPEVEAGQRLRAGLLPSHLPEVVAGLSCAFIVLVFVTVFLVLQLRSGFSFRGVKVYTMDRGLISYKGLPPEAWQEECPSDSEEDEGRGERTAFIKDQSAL

With `CCCCCCCCCCCCCCCC(=O)N[C@@H](CCCCNC(=O)CCCCCNC(=O)CCCC[C@@H]1SC[C@@H]2NC(=O)N[C@@H]21)C(=O)N[C@@H](CCCNC(=N)N)C(=O)N[C@H](C(=O)N[C@@H](CCCCN)C(=O)NC(CCCNC(=N)N)P(=O)(Oc1ccccc1)Oc1ccccc1)C(C)C` (stereo partly drawn) [QUB-F1, N^α-Pal-N^ω-(Biotinyl-Ahx)-Lys-RVKR^P(OPh)2] (Palmitoyl-K([Ahx-Biotin])RVK-X1) the “inhibitory action on cathepsin B” value (cathepsin B) was “no inhibitory action”, the Ki (recombinant human furin) was 933 nM and the “k3 (apparent first order rate constant)” value (recombinant human furin) was 0.016 (± 0.004) min^-1. For the same molecule, the kinact/KI (recombinant human furin; read-out: k3/Ki (overall second-order rate constant) (converted)) was 342 M⁻¹ s⁻¹ and the “effect on PEA-induced epithelial cell toxicity” value (CuFi-1 epithelial cells) was “offered no protection”.
